Measurements from patent US20210205323A1, “MAINTENANCE THERAPY OF A PARP INHIBITOR IN TREATING GASTRIC CANCER” (BEIGENE, LTD., priority 2018, published 2021).

Legend:
[1] = tested on: BBGA087 patient derived gastric cancer xenograft; experiment: Pamiparib as maintenance therapy after oxaliplatin + 5-FU treatment in the xenograft model; format: in vivo, female nod-scid mice
Description: (§1) Female nod-scid mice were subcutaneously implanted with BBGA087 patient derived gastric tumor tissue fragments (3×3×3 mm3) in the right flank. After inoculation, tumor volume and body weight were measured twice weekly and calculated using the formula: V=0.5×(a×b2) where a and b were the long and short diameters of the tumor, respectively. When the average tumor size reached 200 mm3, animals were randomly assigned into 3 groups. Animals were treated with vehicle (0.5% methylcellulose, 0.5% MC), pamiparib, oxaliplatin plus 5-Fluorouracil (5-FU), respectively. BGB290 was administered at 6 mg/kg by oral gavage (p.o.) twice daily (BID), oxaliplatin was administered by intraperitoneal (i.p.) injection once per week (QW) for three weeks, and 5-FU was administered by intraperitoneal (i.p.) injection once daily with 5 days per week.
After 28 days, mice treated with oxaliplatin and 5-FU were reallocated into 2 groups according to the tumor volume, and were treated with either placebo (0.5% MC) or pamiparib as maintenance therapy.
(§2) Data is presented as mean tumor volume+standard error of the mean (SEM). Tumor growth inhibition (TGI) is calculated using the following formula: […]

[2] = tested on: BBGA087 patient derived gastric cancer xenograft; experiment: Efficacy of pamiparib and oxaliplatin + 5-FU on tumor growth in a patient derived gastric cancer xenograft; format: in vivo, female nod-scid mice; settings: BBGA087 model, pamiparib 6 mg/kg p.o. BID
Description: as §1, §2

PBMCs = experiment: Clinical pharmacodynamic target modulation in PBMCs; format: in vivo; settings: in the clinic; recommended Phase 2 dose 60 mg BID
gastric cancer = settings: olaparib added to second-line chemotherapy with paclitaxel; phase III; cited from earlier work

Row | SMILES | Mean Tumor Volume on Day 32 ([1]; maintenance therapy 6 mg/kg BID after 28 days of oxaliplatin + 5-FU, Day 32) [mm3] | TGI (%) on Day 32 ([1]; maintenance therapy 6 mg/kg BID after 28 days of oxaliplatin + 5-FU, versus placebo (0.5% MC), Day 32) [%] | tumor relapse on maintenance therapy ([1]; pamiparib 6 mg/kg BID as maintenance versus placebo (0.5% MC) after oxaliplatin + 5-FU) | Mean Tumor Volume on Day 28 ([2]; oxaliplatin 5 mg/kg + 5-FU 15 mg/kg i.p.) [mm3] | TGI (%) on Day 28 ([2]; oxaliplatin 5 mg/kg i.p. QW*3 plus 5-FU 15 mg/kg i.p. QD*5/week*3) [%] | dose level achieving maximum pharmacodynamic target modulation in PBMCs (PBMCs) [mg BID] | overall survival (OS) compared with paclitaxel and placebo (gastric cancer)
1 | C[C@]12CCCN1CC1=NNC(=O)c3cc(F)cc4[nH]c2c1c34 [pamiparib] | 222 | 96 | tumor relapse was delayed | 921 | 42 | 10 | –
2 | O=C(c1cc(Cc2n[nH]c(=O)c3ccccc23)ccc1F)N1CCN(C(=O)C2CC2)CC1 [olaparib] | – | – | – | – | – | – | failed to improve overall survival
